Article PMC12128885, “Myricetin-bound crystal structure of the SARS-CoV-2 helicase NSP13 facilitates the discovery of novel natural inhibitors” (Acta Crystallographica Section D: Structural Biology, 2025)
“Also recorded” adds a separate entry of the source. Like-named read-outs stand apart in the source and are kept apart here.

Columns and labels:
[1] = system: Wuhan-like SARS-CoV-2 strain; test: microbe, parasite or virus in culture; assay type: cell-based
main protease (NSP5) = details: 2024, cited from earlier work
spike protein = details: read-out: Kd, spike protein; ref Su et al., 2021; Pan et al., 2023; Kuzikov et al., 2024; cited from earlier work
[2] = biological target: RNA-dependent RNA polymerase (NSP12); parameters: method as in Su et al., 2021; Pan et al., 2023; Kuzikov et al., 2024; details: ref Su et al., 2021; Pan et al., 2023; Kuzikov et al., 2024; cited from earlier work

For `O=C(/C=C/c1ccc(O)c(O)c1)O[C@@H]1C[C@](O)(C(=O)O)C[C@@H](O)[C@H]1O` [Chlorogenic acid, (1S,3R,4R,5R)-3-[(E)-3-(3,4-Dihydroxyphenyl)prop-2-enoyl]oxy-1,4,5-trihydroxycyclohexane-1-carboxylic acid], the “IC50, infection assay (percentage of infected cells)” value ([1]; Vero E6 cells, MOI 0.3, 48 h, compound 1 h before infection) was “no significant effect; also recorded: no significant inhibition”.

In the case of `O=c1c(O)c(-c2cc(O)c(O)c(O)c2)oc2cc(O)cc(O)c12` [Myricetin, 3,5,7-Trihydroxy-2-(3,4,5-trihydroxyphenyl)chromen-4-one], the IC50 (main protease (NSP5); ref Su et al., 2021, Pan et al., 2023, Kuzikov et al., read-out: IC50, main protease (NSP5)) is given as 630 nM, the Kd (spike protein) is given as 2670 nM and the IC50 [2] is given as 860 nM.

In the case of `O=c1nc(NO)ccn1[C@@H]1O[C@H](CO)[C@@H](O)[C@H]1O` [NHC, β-D-N4-hydroxycytidine, reference compound], the IC50 ([1]; Vero E6 cells, MOI 0.3, 48 h, compound 1 h before infection, read-out: IC50, infection assay (percentage of infected cells)) is reported as 0.745 µM.

For `O=C(/C=C/c1ccc(O)c(O)c1)O[C@H](Cc1ccc(O)c(O)c1)C(=O)O` [Rosmarinic acid, (2R)-3-(3,4-Dihydroxyphenyl)-2-[(E)-3-(3,4-dihydroxyphenyl)prop-2-enoyl]oxypropanoic acid], the IC50 (main protease (NSP5); noncovalent binding to active site, ref Li et al., read-out: IC50, NSP5) is given as 2180 nM and the IC50 ([1]; Severe acute respiratory syndrome coronavirus 2, Vero C1008, read-out: IC50, infection assay (percentage of infected cells)) is given as 59.3 µM.
